Read-outs that look alike come from different tables or passages of the source.
Tests used:
BSA = molecular target: T1, BSA (Bos taurus, UniProt P02769); set-up: Intact protein LC/MS covalent labelling, fragments in pools of five, 200 uM each, 4 °C; conditions: 24 h, 4 °C, pool of five; 200 µM; covalent
T1 construct: gene ALB

NUDT7 = molecular target: T2, NUDT7 (Homo sapiens, UniProt P0C024); set-up: Intact protein LC/MS covalent labelling, fragments in pools of five, 200 uM each, 4 °C; conditions: 24 h, 4 °C, pool of five; 200 µM; covalent
T2 construct: residues 14-235, E. coli, pNIC28-Bsa4, N-terminal His6 tag removed by TEV, construct 26672 Da

OTUB2 (OTUB2A) = molecular target: T3, OTUB2 (OTUB2A) (Homo sapiens, UniProt Q96DC9); set-up: Intact protein LC/MS covalent labelling, fragments in pools of five, 200 uM each, 4 °C; conditions: 24 h, 4 °C, pool of five; 200 µM; covalent
T3 construct: full length residues 1-234, E. coli BL21(DE3)-R3, His tag removed by TEV, construct 27312 Da
T3 sequence (Q96DC9 1-234): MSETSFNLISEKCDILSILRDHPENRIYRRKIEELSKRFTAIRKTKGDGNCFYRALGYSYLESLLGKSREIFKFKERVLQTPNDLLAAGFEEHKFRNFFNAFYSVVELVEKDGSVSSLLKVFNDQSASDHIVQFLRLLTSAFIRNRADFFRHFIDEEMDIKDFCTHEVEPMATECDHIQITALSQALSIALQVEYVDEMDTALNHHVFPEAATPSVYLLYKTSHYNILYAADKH

PCAF = molecular target: T4, PCAF (Homo sapiens, UniProt Q92831); set-up: Intact protein LC/MS covalent labelling, fragments in pools of five, 200 uM each, 4 °C; conditions: 24 h, 4 °C, pool of five; 200 µM; covalent
T4 construct: gene KAT2B

in vitro [1] = experiment: in vitro; set-up: species or system CCD841, HEK293; conditions: human, hb2 cells, read-out: HB-2 Cells Viability (%)
in vitro [2] = experiment: in vitro; set-up: species or system HB2, HEK293; conditions: human, ccd841 cells
in vitro [3] = experiment: in vitro; set-up: species or system HB2, CCD841; conditions: human, hek293 cells

T2 sequence (P0C024 14-235): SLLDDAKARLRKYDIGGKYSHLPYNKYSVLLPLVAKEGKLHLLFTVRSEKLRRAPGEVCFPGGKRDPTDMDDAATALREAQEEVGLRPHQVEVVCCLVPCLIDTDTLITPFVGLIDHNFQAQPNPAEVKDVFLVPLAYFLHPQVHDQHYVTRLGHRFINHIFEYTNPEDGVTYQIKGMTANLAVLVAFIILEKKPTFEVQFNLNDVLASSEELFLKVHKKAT
T1 sequence (P02769 whole entry, the tested form may be a part): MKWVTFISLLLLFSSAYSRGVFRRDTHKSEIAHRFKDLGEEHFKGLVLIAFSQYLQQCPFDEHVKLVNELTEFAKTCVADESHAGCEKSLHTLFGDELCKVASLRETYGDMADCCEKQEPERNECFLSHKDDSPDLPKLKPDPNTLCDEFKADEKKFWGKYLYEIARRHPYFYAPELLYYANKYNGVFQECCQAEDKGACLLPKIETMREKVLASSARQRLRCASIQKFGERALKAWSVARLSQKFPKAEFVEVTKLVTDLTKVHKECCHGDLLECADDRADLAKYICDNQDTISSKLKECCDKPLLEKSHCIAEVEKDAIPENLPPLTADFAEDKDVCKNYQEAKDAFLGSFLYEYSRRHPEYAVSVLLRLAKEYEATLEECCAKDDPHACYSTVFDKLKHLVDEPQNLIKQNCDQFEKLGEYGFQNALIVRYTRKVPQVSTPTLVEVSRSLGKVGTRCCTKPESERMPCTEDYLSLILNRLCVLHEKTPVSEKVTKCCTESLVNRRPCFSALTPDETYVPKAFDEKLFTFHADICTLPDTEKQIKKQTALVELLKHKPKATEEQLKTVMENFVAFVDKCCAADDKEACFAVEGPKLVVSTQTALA
T4 sequence (Q92831 whole entry, the tested form may be a part): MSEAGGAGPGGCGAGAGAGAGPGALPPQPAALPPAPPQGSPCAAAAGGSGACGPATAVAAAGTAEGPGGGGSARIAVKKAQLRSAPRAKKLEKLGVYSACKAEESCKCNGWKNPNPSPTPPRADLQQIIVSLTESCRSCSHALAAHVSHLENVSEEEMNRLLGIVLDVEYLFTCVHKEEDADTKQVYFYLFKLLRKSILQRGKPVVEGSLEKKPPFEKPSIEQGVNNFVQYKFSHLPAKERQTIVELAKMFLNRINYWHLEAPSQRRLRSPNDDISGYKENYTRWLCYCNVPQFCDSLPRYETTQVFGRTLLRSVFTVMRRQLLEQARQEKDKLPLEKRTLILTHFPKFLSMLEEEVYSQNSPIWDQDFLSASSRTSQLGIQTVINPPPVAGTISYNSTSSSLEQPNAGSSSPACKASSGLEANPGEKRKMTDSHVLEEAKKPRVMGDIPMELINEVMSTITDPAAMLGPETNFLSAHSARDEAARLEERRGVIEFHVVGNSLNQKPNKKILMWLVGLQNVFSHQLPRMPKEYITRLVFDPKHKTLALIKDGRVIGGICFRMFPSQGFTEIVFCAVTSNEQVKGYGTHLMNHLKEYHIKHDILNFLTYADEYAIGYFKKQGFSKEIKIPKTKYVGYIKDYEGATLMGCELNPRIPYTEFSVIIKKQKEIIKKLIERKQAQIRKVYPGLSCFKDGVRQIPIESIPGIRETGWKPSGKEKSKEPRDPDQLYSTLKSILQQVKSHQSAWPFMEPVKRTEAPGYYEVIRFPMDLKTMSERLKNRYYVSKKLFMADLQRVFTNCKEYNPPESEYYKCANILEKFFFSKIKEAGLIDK

| SMILES | BSA (BSA) | NUDT7 (NUDT7) | OTUB2 (OTUB2 (OTUB2A)) | PCAF (PCAF) | viability at 48 h, 10 µM (in vitro [1]) [%] | viability at 48 h, 10 µM (in vitro [2]) [%] | viability at 48 h, 10 µM (in vitro [3]) [%] |
| --- | --- | --- | --- | --- | --- | --- | --- |
| NC(=O)C1CCN(C(=O)CCl)CC1 [PCM-0102584] | 0 | 0 | 0 | 0 | 105 | 97.9 | 89.8 |
| O=C(CCl)Nc1cc2c(cc1Cl)OCCO2 [PCM-0102585] | 0 | 0.12 | 0 | 0 | 38.7 | 68 | 15 |
| Cc1cc(SC#N)cc(C)c1NC(=O)CCl [PCM-0102586] | 0 | 0 | 0 | 0 | 27.3 | 14.2 | 51.6 |
| Cc1n[nH]c(C)c1NC(=O)CCl [PCM-0102588] | 0 | 0 | 0 | 0 | 102 | 98.7 | 98.6 |
| COC(=O)c1ccccc1N(C)C(=O)CCl [PCM-0102589] | 0 | 0.15 | 0 | 0 | 92.1 | 89.7 | 58.9 |
| O=C(CCl)Nc1cc(C(=O)O)ccc1Cl [PCM-0102590] | 0 | 0 | 0 | 0 | 103 | 102 | 110 |
| CN(Cc1ccccc1Br)C(=O)CCl [PCM-0102592] | 0 | 0.14 | 0.12 | 0 | 27.4 | 71.9 | 39 |
| C=CC(=O)N1CCC(C(=O)N2CCN(C(C)=O)CC2)CC1 [PCM-0102593] | 0 | 0 | 0 | 0 | 98.3 | 111 | 105 |
| CCN(C(=O)CCl)C1CC1 [PCM-0102594] | 0 | 0 | 0 | 0 | 100 | 95.2 | 92.7 |
| C=CC(=O)N1CCC(NC(=O)c2ccncc2)CC1 [PCM-0102595] | 0 | 0 | 0 | 0 | 102 | 102 | 94.7 |
| O=C(CCl)NCC1CCOC1 (centres unmarked) [PCM-0102596] | 0 | 0 | 0.13 | 0 | 93.6 | 90.8 | 112 |
| CC(NC(=O)CCl)C(=O)N1CCCCC1 (centres unmarked) [PCM-0102598] | 0 | 0 | 0 | 0 | 101 | 99.9 | 98.7 |
| C=CC(=O)N1CC(c2nc(C)no2)C1 [PCM-0102599] | 0 | 0 | 0 | 0 | 108 | 102 | 90.9 |
| C=CC(=O)N1CCCC2(CCS(=O)(=O)C2)C1 (centres unmarked) [PCM-0102600] | 0 | 0.05 | 0 | 0 | 107 | 121 | 98.9 |
| C=CC(=O)NC1CCN(c2ccc(C(F)(F)F)cn2)CC1 [PCM-0102602] | 0 | 0 | 0 | 0 | 103 | 94.7 | 62.4 |
| C=CC(=O)N1CC(NC(=O)C(F)(F)F)CCC1C(F)(F)F (centres unmarked) [PCM-0102603] | 0 | 0 | 0 | 0 | 97.9 | 104 | 110 |

Further lines, with some results ahead:

| BSA (BSA) | NUDT7 (NUDT7) | OTUB2 (OTUB2 (OTUB2A)) | PCAF (PCAF) | SMILES | viability at 48 h, 10 µM (in vitro [1]) [%] | viability at 48 h, 10 µM (in vitro [2]) [%] | viability at 48 h, 10 µM (in vitro [3]) [%] |
| --- | --- | --- | --- | --- | --- | --- | --- |
| 0 | 0 | 0 | 0 | C=CC(=O)N1CCCC(c2nnc3ccc(C(F)(F)F)cn23)C1 (centres unmarked) [PCM-0102606] | 107 | 111 | 126 |
| 0 | 0 | 0 | 0 | C=CC(=O)N1CCCC(NC(=O)c2ccc(C(F)(F)F)cc2)C1 (centres unmarked) [PCM-0102607] | 98.9 | 100 | 114 |
| 0 | 0 | 0.06 | 0 | C=CC(=O)N1CCCC(CC(=O)OC(C)(C)C)CC1 (centres unmarked) [PCM-0102609] | 106 | 104 | 90.6 |
| 0 | 0 | 0.37 | 0 | O=C(CCl)Nc1ccc(N2CCCCC2)cc1 [PCM-0102612] | 41.7 | 55.2 | 57.2 |
| 0 | 0.23 | 0.27 | 0 | O=C(CCl)NC(=O)Nc1ccc2c(c1)OCCO2 [PCM-0102614] | 88.7 | 83.6 | 80.3 |
| 0 | 0 | 0 | 0 | O=C(CCl)N1CCOC(c2ccc(F)cc2)C1 (centres unmarked) [PCM-0102615] | 2 | 12.6 | 4.8 |
| 0 | 0 | 0.1 | 0 | O=C(CCl)NC1CCN(C(=O)c2ccco2)CC1 [PCM-0102619] | 105 | 101 | 84.6 |
| 0 | 0.36 | 0.16 | 0 | NC(=O)c1c(NC(=O)CCl)sc2c1CCCC2 [PCM-0102620] | 42.3 | 73.1 | 29.6 |
| 0 | 0 | 0 | 0 | C=CC(=O)N1CCn2c(cc3ccccc32)C1 [PCM-0102621] | 106 | 114 | 85.7 |
| 0 | 0 | 0.32 | 0 | CC(C)(C)c1ccc(NC(=O)CCl)cc1 [PCM-0102622] | 12.6 | 38.7 | 10.3 |
| 0 | 0 | 0 | 0 | Cc1ccc(C(=O)O)cc1NC(=O)CCl [PCM-0102624] | 102 | 108 | 86.2 |
| 0 | 0 | 0 | 0 | O=C(CCl)N1CCCc2cc(S(=O)(=O)N3CCCC3)ccc21 [PCM-0102625] | 5.4 | 12.2 | 2.5 |
| 0 | 0 | 0 | 0 | C=CC(=O)Nc1ccc(C)cn1 [PCM-0102627] | 96.7 | 84.1 | 78.8 |
| 0 | 0 | 0 | 0 | Cc1ccc(S(=O)(=O)N2CCN(C(=O)CCl)CC2)c(C)c1 [PCM-0102628] | 35.6 | 82.6 | 82.4 |
| 0 | 0 | 0 | 0 | C=CC(=O)N1CCOc2ccccc21 [PCM-0102629] | 80.9 | 86.1 | 71.1 |
| 0 | 0 | 0 | 0 | Cc1nc(CN2CCN(C(=O)CCl)CC2)cs1 [PCM-0102630] | 92 | 79.3 | 67.4 |
